Paper PMC4533833 (ACS chemical biology, 2015)
Like-named read-outs stand apart in the source and are kept apart here.

Columns and labels:
[1] = tested on: V561M FGFR1; assay: Intrinsic protein fluorescence quenching titration, V561M FGFR1; type: binding, Human; settings: for fold decrease in affinity (increase in Kd) for V561M relative to WT FGFR1: Kd V561M FGFR1 versus Kd WT FGFR1
[2] = tested on: FGFR1; settings: read-out: IC50 (enzyme); cited from earlier work
[3] = tested on: FGFR1; settings: read-out: IC50 (cells); cited from earlier work

Compound	fold greater loss of affinity for E3810 compared to AZD4547 conferred by the V561M FGFR1 mutation ([1]; E3810 versus AZD4547)	fold decrease in affinity (increase in Kd) for V561M relative to WT FGFR1 [1]	IC50 [2]	IC50 [3]
CNC(=O)c1cccc2cc(Oc3ccnc4cc(OCC5(N)CC5)c(OC)cc34)ccc12 [E3810]	over 150 fold	5000 fold	–	–
AZD4547	–	32 fold	0.2 nM	12 nM
